Experimental data reported in the supplement of paper PMC10307832.

What was measured:
Assay in all cases: relative viability (nuclei count vs DMSO), 5 days (fraction); higher = more cells survive
Axitinib + Vorinostat = compound: CNC(=O)c1ccccc1Sc1ccc2c(/C=C/c3ccccn3)n[nH]c2c1 [Axitinib] + O=C(CCCCCCC(=O)Nc1ccccc1)NO [Vorinostat] (partner 1 µM)
How it was run: (§1)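 Lung cancer cell lines in 1536-well plates were dosed by pin tool the day after seeding, either with one drug alone or with a fixed anchor-drug dose plus five library-drug doses (not always all listed) in √10 steps. After 5 days, cells were fixed and their nuclei stained in one step (final 0.05% Triton X-100, 1% formaldehyde, 1 ug/ml Hoechst), then counted on 4× images. Relative viability is the nuclei count in treated wells divided by that in vehicle wells. Values are medians of duplicate plates.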

[1] = compound: CC1=CC=C(C=C1)C(=O)CN2C3=C(CCCC3)SC2=N [Pifithrin_alpha] + CCNC(=O)c1noc(-c2cc(C(C)C)c(O)cc2O)c1-c1ccc(CN2CCOCC2)cc1 [Luminespib] (partner 0.01 µM)
How it was run: as §1

Axitinib + Decitabine = compound: CNC(=O)c1ccccc1Sc1ccc2c(/C=C/c3ccccn3)n[nH]c2c1 [Axitinib] + Nc1ncn([C@H]2C[C@H](O)[C@@H](CO)O2)c(=O)n1 [Decitabine] (partner 2 µM)
How it was run: as §1

Bemcentinib + Bortezomib = compound: Nc1nc(Nc2ccc3c(c2)CC[C@@H](N2CCCC2)CC3)nn1-c1cc2c(nn1)-c1ccccc1CCC2 [Bemcentinib] + CC(C)C[C@H](NC(=O)[C@H](Cc1ccccc1)NC(=O)c1cnccn1)B(O)O [Bortezomib] (partner 0.002 µM)
How it was run: as §1

Cell Line | relative viability (Axitinib + Vorinostat; first compound 0.005 µM) | relative viability (Axitinib + Vorinostat; first compound 0.01581 µM) | relative viability (Axitinib + Vorinostat; first compound 0.05 µM) | relative viability (Axitinib + Vorinostat; first compound 0.1581 µM) | relative viability (Axitinib + Vorinostat; first compound 0.5 µM) | relative viability ([1]; first compound 1 µM) | relative viability ([1]; first compound 3.162 µM) | relative viability ([1]; first compound 10 µM) | relative viability ([1]; first compound 31.62 µM) | relative viability ([1]; first compound 100 µM) | relative viability (Axitinib + Decitabine; first compound 0.005 µM) | relative viability (Axitinib + Decitabine; first compound 0.01581 µM) | relative viability (Axitinib + Decitabine; first compound 0.05 µM) | relative viability (Axitinib + Decitabine; first compound 0.1581 µM) | relative viability (Axitinib + Decitabine; first compound 0.5 µM) | relative viability (Bemcentinib + Bortezomib; first compound 0.04 µM) | relative viability (Bemcentinib + Bortezomib; first compound 0.1265 µM) | relative viability (Bemcentinib + Bortezomib; first compound 0.4 µM) | relative viability (Bemcentinib + Bortezomib; first compound 1.265 µM) | relative viability (Bemcentinib + Bortezomib; first compound 4 µM)
201T | 0.995 | 0.946 | 0.969 | 0.9 | 0.951 | 1.23 | 0.805 | 0.917 | 0.8 | 0.766 | 0.866 | 0.803 | 0.851 | 0.872 | 0.878 | 0.864 | 1.15 | 1.12 | 0.978 | 1.1
A-427 | 0.909 | 0.929 | 0.864 | 0.903 | 0.956 | 1.07 | 0.917 | 1 | 0.678 | 0.828 | 0.58 | 0.602 | 0.553 | 0.57 | 0.589 |  | 0.971 | 0.871 | 0.942 | 0.967
ABC-1 | 1.15 |  | 1.13 | 1.47 | 1.34 |  | 0.642 | 0.766 | 0.508 | 0.262 | 1.35 |  | 0.866 | 0.964 | 1.01 | 0.269 | 0.285 | 0.289 | 0.285 | 0.257
BEN | 0.609 | 0.637 | 0.635 | 0.592 | 0.551 | 0.191 | 0.285 | 0.401 | 0.493 | 0.398 | 0.795 | 0.758 | 0.771 | 0.782 | 0.635 | 0.56 | 0.899 | 0.891 | 0.506 | 0.776
COR-L23 | 0.516 | 0.478 | 0.502 | 0.452 | 0.586 | 0.703 | 0.865 | 0.562 |  | 0.484 | 0.504 | 0.454 | 0.419 | 0.511 | 0.397 | 1.16 | 1.14 | 1.17 | 1.27 | 1.24
COR-L 105 | 0.958 | 0.794 | 0.874 | 0.825 | 0.818 | 0.675 | 0.763 | 0.547 | 0.62 | 0.685 | 0.727 | 0.557 | 0.726 | 0.727 | 0.683 | 0.766 | 0.71 | 1.04 | 0.739 | 0.74
ChaGo-K-1 | 0.727 | 0.754 | 0.797 | 0.746 | 0.737 | 0.563 | 0.528 | 0.477 | 0.38 | 0.581 | 0.557 | 0.527 | 0.506 | 0.52 | 0.495 | 0.905 | 1.1 | 0.98 | 0.804 | 0.766
EKVX | 0.804 | 0.687 | 0.797 | 0.686 | 0.805 | 0.885 |  | 0.826 | 0.726 | 0.769 | 0.366 | 0.315 | 0.344 | 0.334 | 0.396 | 1.02 | 1.36 | 1.03 | 0.996 | 0.995
EMC-BAC-2 | 0.469 | 0.371 | 0.528 | 0.445 | 0.438 | 1.17 | 1.12 | 0.969 |  | 1.08 | 1.03 | 0.966 | 0.971 | 0.965 | 0.945 | 1.07 | 1.15 | 1.07 | 0.952 | 1.11
EPLC-272H | 0.341 | 0.359 | 0.498 | 0.481 | 0.459 | 0.279 | 0.264 | 0.564 | 0.226 | 0.16 | 0.411 | 0.345 | 0.338 | 0.351 | 0.377 |  | 1 | 0.91 | 0.79 | 0.876
H3255 | 0.806 |  | 0.927 | 0.844 | 0.796 | 0.744 | 0.843 | 0.965 | 0.642 | 0.964 | 0.736 |  | 0.559 | 0.508 | 0.535 | 0.648 | 0.863 | 0.767 | 0.803 | 0.715
HARA | 0.533 | 0.559 | 0.526 |  | 0.655 |  | 0.899 | 0.792 |  | 0.481 | 0.575 | 0.396 | 0.484 | 0.548 | 0.581 | 1.19 | 1.17 | 1.27 | 1.15 | 1.1
HCC-15 | 0.992 | 0.91 | 0.837 | 0.743 | 0.823 | 0.175 | 0.284 | 0.315 | 0.209 | 0.322 | 0.637 | 0.635 | 0.681 | 0.615 | 0.603 | 0.931 | 1.19 | 1.12 | 1 | 1.07
HCC-44 | 1.04 | 1.15 | 1.11 | 1.09 | 1.13 | 1.06 | 1.21 | 0.671 | 0.543 | 0.622 | 0.974 | 0.919 | 0.937 | 0.956 | 0.872 | 0.974 | 0.92 | 0.992 | 0.89 | 0.917
HCC-827 | 0.809 | 0.505 | 0.863 | 0.746 | 0.925 | 0.747 | 0.741 | 0.803 | 0.439 | 0.863 | 0.321 | 0.216 | 0.358 | 0.32 | 0.333 | 0.979 | 1.05 | 1.16 | 0.762 | 1.06
HOP-62 | 0.713 | 0.686 | 0.585 | 0.696 | 0.76 | 1.07 | 1.05 | 1.04 | 0.776 | 1.19 | 0.212 | 0.247 | 0.202 | 0.19 | 0.276 | 0.753 | 0.822 |  | 0.779 | 0.736
LC-2-ad | 0.67 | 0.722 | 0.736 | 0.713 | 0.685 |  | 1.14 | 1.01 |  | 0.601 | 0.829 | 0.776 | 0.855 | 0.804 | 0.779 | 1 | 1.01 | 1.11 | 0.968 | 0.982
